# Measurements reported in PubChem BioAssay AID977624 (Broad Institute, 2014).
# Results filed as inconclusive are left out. Activity calls are given as the source filed them.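 How the source made its calls: active means compound lowering the normal-ribosome reporter at least twice as much as the humanized-ribosome reporter, growth loss under a set limit; inconclusive means no clear call, values can overlap the other calls; inactive means the rest.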
# System: E. coli wild-type GFP strain growth, fluorescence, 24 h
# Assay: wild-type E. coli growth inhibition versus h34 humanized strain – h34 mutant RFP, wild-type GFP, cherry-pick, dose response (AID 977624);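 further: wild-type GFP strain co-cultured with humanized h34 ribosome RFP strain in same well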
# Details: not given
row,Compound,AC50
1,Cc1cccc(-c2ccc([C@H]3[C@@H](CO)N4CCCCN(S(=O)(=O)c5ccccc5C)C[C@H]34)cc2)c1,> 52 µM (inactive)
2,O=S(=O)(c1ccccc1)N1C[C@H]2[C@@H](c3ccccc31)[C@@H](CO)N2Cc1ccccc1,> 100 µM (inactive)
3,O=C(CCCSc1nc2ccccc2s1)NCc1ccc2c(c1)OCO2,> 100 µM (inactive)
4,CC1=Nc2cc(C(=O)NCC3CCCO3)ccc2Sc2ccc(Br)cc21 (configuration not stated),> 100 µM (inactive)
5,O=C(Nc1ccc2nc3n(c(=O)c2c1)CCCCC3)c1c(F)ccc([N+](=O)[O-])c1F,> 100 µM (inactive)
6,CC(=O)Oc1ccc(N(C(C)=O)S(=O)(=O)c2ccc(C)cc2)c2ccccc12,> 100 µM (inactive)
7,NC(=O)c1nsc(C(=O)N(c2ccccc2F)C(C(=O)NCc2ccc(F)cc2)c2ccc(O)cc2)c1N (configuration not stated),> 100 µM (inactive)
8,C[C@H](CO)N1C[C@H](C)[C@H](CN(C)C(=O)CCCN(C)C)OCCCC[C@H](C)Oc2ccc(NC(=O)Nc3cccc4ccccc34)cc2C1=O,> 100 µM (inactive)
9,COc1ccc(CCNc2nc(-c3ccncc3)cs2)cc1OC,> 100 µM (inactive)
10,O=C(CCc1ccccc1)Nc1sc2c(c1C(=O)O)CCCC2,> 100 µM (inactive)
11,N#Cc1ccsc1NC(=O)CSc1nnnn1-c1ccc(O)cc1,> 100 µM (inactive)
12,C=CCn1c(-c2cc3cccc(OC)c3o2)n[nH]c1=S,> 100 µM (inactive)
13,O=C(NCc1ccco1)c1ccc(COc2cccc3ccccc23)cc1,> 100 µM (inactive)
14,NS(=O)(=O)c1cccc(NC(=O)CSc2nnc(-c3ccccc3F)n2C2CC2)c1,> 100 µM (inactive)
15,O=C(NCc1ccccc1)c1nc(S(=O)(=O)Cc2ccccc2)ncc1Cl,> 100 µM (inactive)
16,Cc1c(C(=O)NCCSCc2cccc(C(F)(F)F)c2)cnn1-c1ccc(F)cc1,> 100 µM (inactive)
17,CC(=O)Nc1ccc(Nc2nc(C)c([N+](=O)[O-])c(N(C)c3ccccc3)n2)cc1,> 100 µM (inactive)
18,O=C(Nc1cccc(O)c1)c1cc(-c2ccccc2Cl)on1,> 100 µM (inactive)
19,FC(F)(F)c1ccc(Cl)c(-n2c(Cc3cccs3)n[nH]c2=S)c1,> 100 µM (inactive)
20,Cc1cc(C(=O)COC(=O)c2ccc(Br)o2)c(C)n1C,> 100 µM (inactive)
21,COC(=O)c1cccc(CN2C(=O)SC(Nc3ccc(C)cc3)C2=O)c1 (configuration not stated),> 100 µM (inactive)
22,CS(=O)(=O)c1cccc(C(=O)Nc2cccc(-c3nc4ccccc4[nH]3)c2)c1,> 100 µM (inactive)
23,CCOc1ccc(C(C)=O)cc1CN1C(=O)NC2(CCCCCCC2)C1=O,> 100 µM (inactive)
24,Cc1ccc(C2NC(=O)c3[nH]nc(-c4ccccc4)c32)cc1 (configuration not stated),> 100 µM (inactive)
25,CCc1ccc(NC(=O)CCc2c(C)nn(-c3ccc(N4CCCCC4)nn3)c2C)cc1,> 100 µM (inactive)
26,C=CCn1c(CCSCc2ccc(OC)c(C)c2)n[nH]c1=S,> 100 µM (inactive)

row,Compound,AC50
1,Cc1cccc(C)c1NC(=O)C1(C)CSCC(=O)N1CCOc1ccccc1 (configuration not stated),> 100 µM (inactive)
2,Cc1ccc2nc(SCC(=O)Nc3c(F)cccc3F)[nH]c2c1,> 100 µM (inactive)
3,Cc1ccccc1OCC(O)Cn1c(NCc2ccco2)nc2c1c(=O)n(C)c(=O)n2C (configuration not stated),> 100 µM (inactive)
4,CCc1cc2cc(OC)ccc2nc1SCC(=O)Nc1cc(OC)c(OC)cc1C(=O)O,> 100 µM (inactive)
5,CCOC(=O)c1c(CS(=O)(=O)c2ccccc2)n(C)c2cc(Br)c(O)cc12,> 100 µM (inactive)
6,CCCCNC(=O)C[C@@H]1C[C@@]2(C(=O)OC)CCCCC=C2N(Cc2ccccc2)C1=O,> 100 µM (inactive)
7,CC(Nc1ncnc2ccccc12)c1ccccc1 (configuration not stated),> 100 µM (inactive)
8,COc1ccc(C(=O)NCCc2ccccn2)cc1S(=O)(=O)Nc1ccc(Br)cc1,> 100 µM (inactive)
9,COC(=O)C(Cc1csc2ccc(Cl)cc12)NC(=O)c1ccc(Cl)cc1 (configuration not stated),> 100 µM (inactive)
10,COc1ccc(NC(=O)Nc2cccc3c2O[C@@H](CN(C)S(=O)(=O)c2ccc(Cl)cc2)[C@H](C)CN([C@H](C)CO)C3=O)cc1,> 100 µM (inactive)
11,CN(CCOc1ccccc1)S(=O)(=O)c1ccccc1C#N,> 100 µM (inactive)
12,O=C(O)c1ccc2c(c1)N(Cc1ccc(F)cc1)C(=O)c1ccccc1S2,> 100 µM (inactive)
13,O=C(O)CC1(CC(=O)NCc2ccc(-c3cccs3)cc2)CCCCC1,> 100 µM (inactive)
14,Nc1cc([N+](=O)[O-])ccc1Nc1ccc(O)cc1,> 100 µM (inactive)
15,CCOC(=O)c1nc(S(C)(=O)=O)ncc1Cl,> 100 µM (inactive)
16,O=C(Nc1ccc(C(=O)Nc2ccccc2Cl)cc1)c1cccnc1,> 100 µM (inactive)
17,Cc1oc(-c2ccc(-c3ccccc3)cc2)nc1CN(C)C1CCOC1 (configuration not stated),> 100 µM (inactive)
18,COC(=O)c1c(NC(=O)c2ccccc2C(=O)O)sc2c1CCC2,> 100 µM (inactive)
19,O=C(CSc1nc(C2CCCCC2)nc2ccccc12)N1CCCC1,> 100 µM (inactive)
20,N#Cc1nc(Cc2ccccc2)oc1N1CCCC1,> 100 µM (inactive)
21,CCOC(=O)c1[nH]c2ccccc2c1NC(=O)c1ccc(Br)o1,> 100 µM (inactive)
22,COc1ccc(NC(=O)CN(c2ccccc2)S(=O)(=O)c2ccccc2)c(OC)c1,> 100 µM (inactive)
23,COc1ccc(-c2nnn(CC(=O)N3CCN(c4ccccc4OC)CC3)n2)cc1OC,> 100 µM (inactive)
24,CCOc1ccc2sc(NS(=O)(=O)c3ccc(N)cc3)nc2c1,> 100 µM (inactive)
25,CCOc1ccccc1N1CCN(Cc2cn[nH]c2-c2ccc(F)cc2)CC1,> 100 µM (inactive)

# System: E. coli mixed culture (wild-type GFP + h34 RFP) total growth, OD600, 24 h
# Assay: as above
# Details: E. coli mixed culture (wild-type GFP + h34 RFP), 24 h; measured here: total OD600 growth
row,Compound,AC50 [µM]
1,CCOC(=O)c1c(C)[nH]c(C)c1S(=O)(=O)NCCN1CCN(c2ccccc2F)CC1,> 100
2,CO[C@@H]1CN(C)C(=O)c2cc(NC(=O)C3CCCC3)ccc2OC[C@@H](C)N(C(=O)Nc2ccc(C(F)(F)F)cc2)C[C@H]1C,> 100
3,CCOc1ccc(CCNC(=O)CCn2ccc3cc(S(=O)(=O)N4CCCC4)ccc32)cc1,> 100
4,Cc1noc(C)c1NC(=O)N(C)C[C@H]1OCCCC[C@@H](C)Oc2ccc(NC(=O)Nc3cccc4ccccc34)cc2C(=O)N([C@@H](C)CO)C[C@H]1C,> 100
5,CCn1cc(CCC(=O)NCCc2ccccc2)c2ccccc21,> 100
6,CC1CCN(c2ccc3nnc(CCC(=O)Nc4cccc(F)c4)n3n2)CC1,> 100
7,O=C(CC1C(=O)NCCN1CC1CCCCC1)NCc1ccc(F)cc1F (configuration not stated),> 100
8,CCOC(=O)c1cc(-c2ccc(OC)cc2)n[nH]1,> 100
9,CC(=O)Nc1cccc(-c2ccnc3c2CC(C(=O)Nc2ccc4c(c2)OCO4)O3)c1 (configuration not stated),> 100
10,CC(=O)Nc1cccc(NC(=O)CSc2ccc(-c3cccnc3)nn2)c1,> 100
11,CN(C)Cc1nc2ccccc2c(=O)n1Cc1nc(-c2cccc([N+](=O)[O-])c2)cs1,> 100
12,CCCN(Cc1ccco1)S(=O)(=O)c1ccc(OC)c(OC)c1,> 100
13,O=C(c1ccc2c(c1)CCN2S(=O)(=O)c1ccccc1)N1CCN(c2ccccc2)CC1,> 100
14,CC(=O)c1cccc(NC(=O)COC(=O)CCC(=O)c2ccc(F)cc2)c1,> 100
15,Cc1cccc(-c2ccc([C@H]3[C@H](CO)N4CCCCN(S(=O)(=O)c5ccccc5C)C[C@@H]34)cc2)c1,> 52
16,C=CCN(CC(O)c1cccc([N+](=O)[O-])c1)C(C)CCc1ccccc1 (configuration not stated),> 100
